{"source": "patent US6437128B1", "about": "“Cribrostatins 3-5” (Arizona Board of Regents, priority 2001, dated 2002)", "key": {"[1]": {"test_system": "LOX IMVI", "assay": "NCI 60-cell screen", "type": "cell-based, human", "settings": "Homo sapiens, averaged, quadruplicate, upper limit 10^−5 M, read-out: negative log10 GI50 (converted)"}, "[2]": {"test_system": "UACC-62", "assay": "NCI 60-cell screen", "type": "cell-based, human", "settings": "Homo sapiens, averaged, quadruplicate, upper limit 10^−5 M, read-out: negative log10 GI50 (converted)"}, "[3]": {"test_system": "OVCAR4", "assay": "NCI 60-cell screen", "type": "cell-based, human", "settings": "Homo sapiens, OVCAR-4, averaged, quadruplicate, upper limit 10^−5 M, read-out: negative log10 GI50 (converted)"}, "[4]": {"test_system": "IGROV1", "assay": "NCI 60-cell screen", "type": "cell-based, human", "settings": "Homo sapiens, IGROV-1, averaged, quadruplicate, upper limit 10^−5 M, read-out: negative log10 GI50 (converted)"}, "[5]": {"test_system": "SF-295", "assay": "NCI 60-cell screen", "type": "cell-based, human", "settings": "Homo sapiens, averaged, quadruplicate, upper limit 10^−5 M, read-out: negative log10 GI50 (converted)"}, "[6]": {"test_system": "Staphylococcus aureus (ATCC 29213)", "assay": "Antimicrobial disk diffusion", "type": "cell-based"}, "[7]": {"test_system": "OVCAR-3", "assay": "NCI 60-cell screen", "type": "cell-based, human", "settings": "Homo sapiens, averaged, quadruplicate, upper limit 10^−5 M, read-out: negative log10 GI50 (converted)"}, "[8]": {"test_system": "Candida albicans (ATCC 90028)", "assay": "Antimicrobial disk diffusion", "type": "cell-based"}, "[9]": {"test_system": "PC-3", "assay": "NCI 60-cell screen", "type": "cell-based, human", "settings": "Homo sapiens, averaged, quadruplicate, upper limit 10^−5 M, read-out: negative log10 GI50 (converted)"}, "[10]": {"test_system": "Penicillin-resistant N. gonorrhoeae (clinical isolate)", "assay": "Antimicrobial disk diffusion", "type": "cell-based", "settings": "listed as 5"}, "[11]": {"test_system": "Enterococcus faecalis (ATCC 29212)", "assay": "Antimicrobial disk diffusion", "type": "cell-based"}, "[12]": {"test_system": "HS578T", "assay": "NCI 60-cell screen", "type": "cell-based, human", "settings": "Homo sapiens, Hs-578T, averaged, quadruplicate, upper limit 10^−5 M, read-out: negative log10 GI50 (converted)"}, "[13]": {"test_system": "Bacillus subtilis (Presque Isle 620)", "assay": "Antimicrobial disk diffusion", "type": "cell-based", "settings": "listed as 5"}, "[14]": {"test_system": "Invasive S. pneumoniae (clinical isolate)", "assay": "Antimicrobial disk diffusion", "type": "cell-based"}, "[15]": {"test_system": "786-O", "assay": "NCI 60-cell screen", "type": "cell-based, human", "settings": "Homo sapiens, 786-0, averaged, quadruplicate, upper limit 10^−5 M, read-out: negative log10 GI50 (converted)"}, "[16]": {"test_system": "P388 lymphocytic leukemia", "assay": "in vitro murine P388 lymphocytic leukemia (PS) cell growth inhibition", "type": "cell-based", "description": "The fractions obtained from the 1988-89 recollection of Cribrochalina so. (See: Pettit, G. R.; Collins, J. C.; Herald, D. L.; Doubek, D. L.; Boyd, M. R.; Schmidt, J. M.; Hooper, J. N. A.; Tackett, L. P. Can. J. Cheim. 1992, 70, 1170-1175) beginning with the 195 g dichloromethane partition fraction were re-examined guided by bioassay results using the murine P388 lymphocytic leukemia.\n(§1) Individual cell line response values are provided in the Experimental."}, "[17]": {"test_system": "HOP-92", "assay": "NCI 60-cell screen", "type": "cell-based, human", "settings": "Homo sapiens, averaged, quadruplicate, upper limit 10^−5 M, read-out: negative log10 GI50 (converted)"}, "[18]": {"test_system": "SF-268", "assay": "NCI 60-cell screen", "type": "cell-based, human", "settings": "Homo sapiens, averaged, quadruplicate, upper limit 10^−5 M, read-out: negative log10 GI50 (converted)"}, "[19]": {"test_system": "CCRF-CEM", "assay": "NCI 60-cell screen", "type": "cell-based, human", "settings": "Homo sapiens, averaged, quadruplicate, upper limit 10^−5 M, read-out: negative log10 GI50 (converted)"}, "[20]": {"test_system": "Enterobacter cloacae (ATCC 13047)", "assay": "Antimicrobial disk diffusion", "type": "cell-based"}, "[21]": {"test_system": "MDA-MB-231/ATCC", "assay": "NCI 60-cell screen", "type": "cell-based, human", "settings": "Homo sapiens, averaged, quadruplicate, upper limit 10^−5 M, read-out: negative log10 GI50 (converted)"}, "[22]": {"test_system": "SNB-75", "assay": "NCI 60-cell screen", "type": "cell-based, human", "settings": "Homo sapiens, averaged, quadruplicate, upper limit 10^−5 M, read-out: negative log10 GI50 (converted)"}, "[23]": {"test_system": "U251", "assay": "NCI 60-cell screen", "type": "cell-based, human", "settings": "Homo sapiens, U-251, averaged, quadruplicate, upper limit 10^−5 M, read-out: negative log10 GI50 (converted)"}, "[24]": {"test_system": "SN12C", "assay": "NCI 60-cell screen", "type": "cell-based, human", "settings": "Homo sapiens, averaged, quadruplicate, upper limit 10^−5 M, read-out: negative log10 GI50 (converted)"}, "[25]": {"test_system": "KM20L2 (Colon)", "assay": "ASU-CRI minipanel of human cancer cell lines", "type": "cell-based", "settings": "Homo sapiens, KM-20L2, read-out: GI50", "description": "as §1"}, "[26]": {"test_system": "SF-295 (CNS)", "assay": "ASU-CRI minipanel of human cancer cell lines", "type": "cell-based", "settings": "Homo sapiens; CNS SF-295; read-out: GI50", "description": "as §1"}, "[27]": {"test_system": "SW-1736 (Thyroid ca)", "assay": "ASU-CRI minipanel of human cancer cell lines", "type": "cell-based", "settings": "Thyroid ca SW-1736", "description": "as §1"}, "[28]": {"test_system": "FADU (Pharynx-sq)", "assay": "ASU-CRI minipanel of human cancer cell lines", "type": "cell-based", "description": "as §1"}, "[29]": {"test_system": "SK-N-SH (Neuroblast)", "assay": "ASU-CRI minipanel of human cancer cell lines", "type": "cell-based", "description": "as §1"}, "[30]": {"test_system": "OVCAR-3 (Ovarian)", "assay": "ASU-CRI minipanel of human cancer cell lines", "type": "cell-based", "settings": "Homo sapiens; Ovarian OVCAR-3; read-out: GI50", "description": "as §1"}, "[31]": {"test_system": "DU-145 (Prostate)", "assay": "ASU-CRI minipanel of human cancer cell lines", "type": "cell-based", "settings": "Homo sapiens; Prostate DU-145; read-out: GI50", "description": "as §1"}, "[32]": {"test_system": "BXPC-3 (Pancreas-a)", "assay": "ASU-CRI minipanel of human cancer cell lines", "type": "cell-based", "settings": "Homo sapiens; Pancreas-a BXPC-3; read-out: GI50", "description": "as §1"}, "[33]": {"test_system": "NCI-H460 (Lung-NSC)", "assay": "ASU-CRI minipanel of human cancer cell lines", "type": "cell-based", "settings": "Homo sapiens, read-out: GI50", "description": "as §1"}, "[34]": {"test_system": "MALME-3M", "assay": "NCI 60-cell screen", "type": "cell-based, human", "settings": "Homo sapiens, averaged, quadruplicate, upper limit 10^−5 M, read-out: negative log10 GI50 (converted)"}, "[35]": {"test_system": "NCI-H460", "assay": "NCI 60-cell screen", "type": "cell-based, human", "settings": "Homo sapiens, averaged, quadruplicate, upper limit 10^−5 M, read-out: negative log10 GI50 (converted)"}, "[36]": {"test_system": "NCI-H522", "assay": "NCI 60-cell screen", "type": "cell-based, human", "settings": "Homo sapiens, averaged, quadruplicate, upper limit 10^−5 M, read-out: negative log10 GI50 (converted)"}, "[37]": {"test_system": "HOP-62", "assay": "NCI 60-cell screen", "type": "cell-based, human", "settings": "Homo sapiens, averaged, quadruplicate, upper limit 10^−5 M, read-out: negative log10 GI50 (converted)"}, "[38]": {"test_system": "COLO 205", "assay": "NCI 60-cell screen", "type": "cell-based, human", "settings": "Homo sapiens, averaged, quadruplicate, upper limit 10^−5 M, read-out: negative log10 GI50 (converted)"}, "[39]": {"test_system": "OVCAR-8", "assay": "NCI 60-cell screen", "type": "cell-based, human", "settings": "Homo sapiens, averaged, quadruplicate, upper limit 10^−5 M, read-out: negative log10 GI50 (converted)"}, "[40]": {"test_system": "SW-620", "assay": "NCI 60-cell screen", "type": "cell-based, human", "settings": "Homo sapiens, averaged, quadruplicate, upper limit 10^−5 M, read-out: negative log10 GI50 (converted)"}}, "note": "“And” between values parts separate entries of the source, which are not always exact repeats. Equal values may be shown once."}
{"smiles": "C/C=C(/C)C(=O)OC[C@H]1C2=C(C=C3[C@H]4c5c(O)c(OC)c(C)c(O)c5C(=O)[C@@H](C(=O)N31)N4C)C(=O)C(C)=C(OC)C2=O", "note": "[Cribrostatin 4, cribrostatin 4]", "values": [{"measurement": "GI50", "setting": "[1]", "value": 3.31, "unit": "µM"}, {"measurement": "GI50", "setting": "[2]", "value": 9.77, "unit": "µM"}, {"measurement": "GI50", "setting": "[3]", "value": 1.82, "unit": "µM"}, {"measurement": "GI50", "setting": "[4]", "value": 8.51, "unit": "µM"}, {"measurement": "GI50", "setting": "[5]", "value": 8.91, "unit": "µM"}, {"measurement": "Minimum inhibitory concentration", "setting": "[6]", "value": "* (No inhibition at 100 μg/disk)"}, {"measurement": "GI50", "setting": "[7]", "value": 3.63, "unit": "µM"}, {"measurement": "Minimum inhibitory concentration", "setting": "[8]", "value": "* (No inhibition at 100 μg/disk)"}, {"measurement": "GI50", "setting": "[9]", "value": 9.12, "unit": "µM"}, {"measurement": "Minimum inhibitory concentration", "setting": "[10]", "value": "1.56-3.12 μg/disk"}, {"measurement": "Minimum inhibitory concentration", "setting": "[11]", "value": "* (No inhibition at 100 μg/disk)"}, {"measurement": "GI50", "setting": "[12]", "value": 8.71, "unit": "µM"}, {"measurement": "Minimum inhibitory concentration", "setting": "[13]", "value": "12.5-25 μg/disk"}, {"measurement": "Minimum inhibitory concentration", "setting": "[14]", "value": "* (No inhibition at 100 μg/disk)"}, {"measurement": "GI50", "setting": "[15]", "value": 6.17, "unit": "µM"}, {"measurement": "GI50", "setting": "[16]; Mouse Leukemia P388, read-out: GI50", "value": 24.6, "unit": "µg/mL"}, {"measurement": "PS ED50 (P388 ED50)", "setting": "[16]; in vitro P388 lymphocytic leukemia, listed as cribrostatin 4", "value": "25 µg/mL and 24 µg/mL"}, {"measurement": "GI50", "setting": "[17]", "value": 8.13, "unit": "µM"}, {"measurement": "GI50", "setting": "[18]", "value": 9.55, "unit": "µM"}, {"measurement": "GI50", "setting": "[19]", "value": 1.7, "unit": "µM"}, {"measurement": "Minimum inhibitory concentration", "setting": "[20]", "value": "* (No inhibition at 100 μg/disk)"}, {"measurement": "GI50", "setting": "[21]", "value": 2.69, "unit": "µM"}, {"measurement": "GI50", "setting": "[22]", "value": 5.62, "unit": "µM"}, {"measurement": "GI50", "setting": "[23]", "value": 6.46, "unit": "µM"}, {"measurement": "GI50", "setting": "[24]", "value": 7.08, "unit": "µM"}, {"measurement": "GI50", "setting": "[25]", "value": "> 10", "unit": "µg/mL"}, {"measurement": "GI50", "setting": "[26]", "value": "> 10", "unit": "µg/mL"}, {"measurement": "GI50", "setting": "[27]", "value": "> 10", "unit": "µg/mL"}, {"measurement": "GI50", "setting": "[28]", "value": 0.26, "unit": "µg/mL"}, {"measurement": "GI50", "setting": "[29]", "value": 3.6, "unit": "µg/mL"}, {"measurement": "GI50", "setting": "[30]", "value": 2.2, "unit": "µg/mL"}, {"measurement": "GI50", "setting": "[31]", "value": "> 10", "unit": "µg/mL"}, {"measurement": "GI50", "setting": "[32]", "value": 5.6, "unit": "µg/mL"}, {"measurement": "GI50", "setting": "[33]", "value": "> 10", "unit": "µg/mL"}, {"measurement": "GI50", "setting": "[34]", "value": 0.389, "unit": "µM"}, {"measurement": "GI50", "setting": "[35]", "value": 7.59, "unit": "µM"}, {"measurement": "GI50", "setting": "[36]", "value": 4.17, "unit": "µM"}, {"measurement": "GI50", "setting": "[37]", "value": 7.59, "unit": "µM"}, {"measurement": "GI50", "setting": "[38]", "value": 8.13, "unit": "µM"}, {"measurement": "GI50", "setting": "[39]", "value": 4.27, "unit": "µM"}, {"measurement": "GI50", "setting": "[40]", "value": 6.92, "unit": "µM"}, {"measurement": "melting point", "value": "190 to 192 °C (dec.)"}]}
